Experimental data: patent US8519006B2, “Use of sphingosine-1 phosphate (S1P) receptor agonists for the treatment of brain degenerative diseases” (Novartis AG, priority 2003, dated 2013)
Like-named read-outs stand apart in the source and are kept apart here.

Key:
human monocytes [1] = test: Monocyte chemotaxis toward Aβ (48-blindwell microchemotaxis chamber); type: cell-based
[2] = system: subjects exhibiting mild to moderate Alzheimer dementia; test: Clinical trial, EEG and psychometric tests; type: in vivo, human; conditions: ca. 0.25 to ca. 10 mg/p.o. once or divided 2 or 3×; tests at 60, 120 and 180 minutes
Acute toxicity (LD50) [3] = conditions: rat, in vivo, po
Acute toxicity (LD50) [4] = conditions: monkey, in vivo, po
human monocytes [5] = test: Monocyte chemotaxis toward Aβ precursor protein (Aβ-PP); type: cell-based
[6] = monocytes pre-incubated with enzyme blocker, washed, chemotaxis toward Aβ (1 pmol/l), GFX 500 nmol/l, IBMX 10 ng/ml, Tyrphostin-23 10 ng/ml, WTN 10 nmol/l, CTX 1 nmol/l, PTX 1 nmol/l, Medium 1.786 (0.078)
[7] = monocytes pre-incubated with enzyme blocker, washed, chemotaxis toward Aβ-PP (1 pmol/l), GFX 500 nmol/l, IBMX 10 ng/ml, Tyrphostin-23 10 ng/ml, WTN 10 nmol/l, CTX 1 nmol/l, PTX 1 nmol/l, Medium 1.639 (0.076)

| SMILES | Chemotaxis Index Aβ Mean (+/−SEM) (human monocytes [1]; [6]) | Chemotaxis Index Aβ-PP Mean (+/−SEM) (human monocytes [5]; [7]) | also measured |
| --- | --- | --- | --- |
| CCCCCCCCc1ccc(CCC(N)(CO)CO)cc1.Cl [Compound A, 2-amino-2-[2-(4-octylphenyl)ethyl]propane-1,3-diol] | – | – | Chemotaxis Mean (+/−SEM) (human monocytes [1]; chemotaxis index, monocytes incubated 20 min with 2 ng/ml, washed, chemotaxis toward Aβ [1 pmol/L], Medium 1.825 (0.14)): 1.077 (0.18); condition as evidenced by EEG results and psychometric tests compared with placebo [2]: improved condition; LD50 (Acute toxicity (LD50) [3]): > 10 mg/kg; LD50 (Acute toxicity (LD50) [4]): > 10 mg/kg |
| COC[C@H]1OC(=O)c2coc3c2[C@@]1(C)C1=C(C3=O)[C@@H]2CCC(=O)[C@@]2(C)C[C@H]1OC(C)=O [WTN] | 1.023 (0.05) | 1.115 (0.08) | – |
| N#CC(C#N)=Cc1ccc(O)c(O)c1 [Tyrphostin-23] | – | – | Chemotaxis Index Aβ Mean (+/−SEM) (human monocytes [1]): 1.435 (0.04); Chemotaxis Index Aβ-PP Mean (+/−SEM) (human monocytes [5]): 1.398 (0.07) |
| CN(C)CCCn1cc(C2=C(c3c[nH]c4ccccc34)C(=O)NC2=O)c2ccccc21 [GFX] | 1.143 (0.08) | 1.098 (0.10) | – |
| CC(C)Cn1c(=O)n(C)c(=O)c2[nH]cnc21 [IBMX] | 1.234 (0.06) | 1.208 (0.09) | – |
